Values of other authors as cited in patent publication US20030073069A1, “Drug rescue by redesign of ADMET/PK properties” (priority 2001, published 2003).
Where two headings read alike, the source gives them in different places.

Experiments:
P450 [1] = system: P450
P450 [2] = conditions: induction of a P450

Row | Compound | No. of currently known drug interactions that involve the compound, Inhibition (P450 [1]; inhibition of a P450) | also measured
1 | CC(=O)CC(c1ccc([N+](=O)[O-])cc1)c1c(O)c2ccccc2oc1=O (centres unmarked) [acenocoumarol] | 1 | –
2 | OCCN1CCN(CCCN2c3ccccc3Sc3ccc(C(F)(F)F)cc32)CC1 [fluphenazine] | 1 | –
3 | CCCCNC(=O)NS(=O)(=O)c1ccc(C)cc1 [tolbutamide] | 1 | –
4 | CN(C)CCCN1c2ccccc2Sc2ccc(C(F)(F)F)cc21 [triflupromazine] | 1 | –
5 | CCCC(CCC)C(=O)O [valproic acid] | 1 | –
6 | CC(C)(C)NC[C@H](O)COc1nsnc1N1CCOCC1 [timolol] | 1 | –
7 | CC(C)Nc1cccnc1N1CCN(C(=O)c2cc3cc(NS(C)(=O)=O)ccc3[nH]2)CC1 [delavirdine] | – | No. of currently known drug interactions that involve the compound, Induction (P450 [2]): 2
8 | CC(=O)c1ccc2c(c1)N(CCCN1CCN(CCO)CC1)c1ccccc1S2 [acetophenazine] | 1 | –
9 | CCC(=O)O[C@](Cc1ccccc1)(c1ccccc1)[C@H](C)CN(C)C [propoxyphene] | – | No. of currently known drug interactions that involve the compound, Inhibition (P450 [1]): 1
10 | CC(C)N(CCC(C(N)=O)(c1ccccc1)c1ccccn1)C(C)C (centres unmarked) [disopyramide] | – | No. of currently known drug interactions that involve the compound, Induction (P450 [2]): 3
11 | O=c1[nH]c2ccccc2n1C1CCN(CCCC(c2ccc(F)cc2)c2ccc(F)cc2)CC1 [pimozide] | 3 | –
12 | CC[C@H](C)C(=O)O[C@H]1C[C@H](O)C=C2C=C[C@H](C)[C@H](CC[C@@H](O)C[C@@H](O)CC(=O)O)[C@H]21 [pravastatin] | 1 | –
13 | CN1C(C(=O)Nc2ccccn2)=C(O)c2ccccc2S1(=O)=O [piroxicam] | 1 | –
14 | COc1ccc(C(=O)Nc2ccccc2CCC2CCCCN2C)cc1 (centres unmarked) [encainide] | 2 | –
15 | Clc1ccc(COC(Cn2ccnc2)c2ccc(Cl)cc2Cl)c(Cl)c1 (centres unmarked) [miconazole] | – | No. of currently known drug interactions that involve the compound, Induction (P450 [2]): 2
16 | O=C(CCCN1CCC(O)(c2ccc(Cl)cc2)CC1)c1ccc(F)cc1 [haloperidol] | – | No. of currently known drug interactions that involve the compound, Induction (P450 [2]): 3
17 | C[C@]12C=CC(=O)C=C1CC[C@H]1[C@@H]3C[C@@H](O)[C@](O)(C(=O)CO)[C@@]3(C)C[C@H](O)[C@@]12F [triamcinolone] | – | No. of currently known drug interactions that involve the compound, Induction (P450 [2]): 10
18 | COc1cc(N)c(Cl)cc1C(=O)NC1CCN(CCCOc2ccc(F)cc2)CC1OC (centres unmarked) [cisapride] | 15 | –
19 | CCC(=O)c1ccc2c(c1)N(CC(C)N(C)C)c1ccccc1S2 (centres unmarked) [propiomazine] | 1 | –

Row | Compound | No. of currently known drug interactions that involve the compound, Inhibition (P450 [1]; inhibition of a P450) | also measured
20 | C[C@]12CCC(=O)C=C1CC[C@@H]1[C@@H]2C(=O)C[C@@]2(C)[C@H]1CC[C@]2(O)C(=O)CO [cortisone] | – | No. of currently known drug interactions that involve the compound, Induction (P450 [2]): 15
21 | CCC(C)n1ncn(-c2ccc(N3CCN(c4ccc(OCC5COC(Cn6cncn6)(c6ccc(Cl)cc6Cl)O5)cc4)CC3)cc2)c1=O (centres unmarked) [itraconazole] | – | No. of currently known drug interactions that involve the compound, Induction (P450 [2]): 5
22 | CN(C)CCCN1c2ccccc2Sc2ccc(Cl)cc21 [chlorpromazine] | 1 | –
23 | COCc1c(C(C)C)nc(C(C)C)c(/C=C/[C@@H](O)C[C@@H](O)CC(=O)O)c1-c1ccc(F)cc1 [cerivastatin] | 5 | –
24 | CN1CCCCC1CCN1c2ccccc2Sc2ccc([S+](C)[O-])cc21 (centres unmarked) [mesoridazine] | 1 | –
25 | COc1ccc(CCN2CCC(Nc3nc4ccccc4n3Cc3ccc(F)cc3)CC2)cc1 [astemizole] | 10 | –
26 | CCC(=O)C(CC(C)N(C)C)(c1ccccc1)c1ccccc1 (centres unmarked) [methadone] | – | No. of currently known drug interactions that involve the compound, Induction (P450 [2]): 8
27 | C[C@]12CCC(=O)C=C1CC[C@H]1[C@@H]3CC[C@](O)(C(=O)CO)[C@@]3(C)C[C@H](O)[C@@]12F [fludrocortisone] | – | No. of currently known drug interactions that involve the compound, Induction (P450 [2]): 14
28 | CC(C)c1nc(CN(C)C(=O)N[C@H](C(=O)N[C@@H](Cc2ccccc2)C[C@H](O)[C@H](Cc2ccccc2)NC(=O)OCc2cncs2)C(C)C)cs1 [ritonavir] | – | No. of currently known drug interactions that involve the compound, Induction (P450 [2]): 3
29 | O=C(NCC1CCCCN1)c1cc(OCC(F)(F)F)ccc1OCC(F)(F)F (centres unmarked) [flecainide] | 2 | –
30 | CCC(c1ccccc1)c1c(O)c2ccccc2oc1=O (centres unmarked) [phenprocoumon] | 1 | –
31 | CCSc1ccc2c(c1)N(CCCN1CCN(C)CC1)c1ccccc1S2 [thiethylperazine] | 1 | –
32 | CN1C[C@H](C(=O)N[C@]2(C)O[C@@]3(O)[C@@H]4CCCN4C(=O)[C@H](Cc4ccccc4)N3C2=O)C[C@@H]2c3cccc4[nH]cc(c34)C[C@H]21 [dihydroergotamine] | – | No. of currently known drug interactions that involve the compound, Inhibition (P450 [1]): 7
33 | CCC1(c2ccccc2)C(=O)NC(=O)NC1=O [phenobarbital] | – | No. of currently known drug interactions that involve the compound, Induction (P450 [2]): 1
34 | COc1ccc2[nH]c([S+]([O-])Cc3ncc(C)c(OC)c3C)nc2c1 (centres unmarked) [omeprazole] | 1 | –
35 | Cc1c(O)cccc1C(=O)N[C@@H](CSc1ccccc1)[C@H](O)CN1C[C@H]2CCCC[C@H]2C[C@H]1C(=O)NC(C)(C)C [nelfinavir] | – | No. of currently known drug interactions that involve the compound, Induction (P450 [2]): 2
36 | CC(CN1c2ccccc2Sc2ccccc21)N(C)C (centres unmarked) [promethazine] | 1 | –
37 | CN1C[C@H](C(=O)N[C@]2(C)O[C@@]3(O)[C@@H]4CCCN4C(=O)[C@H](Cc4ccccc4)N3C2=O)C=C2c3cccc4[nH]cc(c34)C[C@H]21 [ergotamine] | – | No. of currently known drug interactions that involve the compound, Inhibition (P450 [1]): 7
38 | CC(C)n1c(/C=C/C(O)CC(O)CC(=O)O)c(-c2ccc(F)cc2)c2ccccc21 (centres unmarked) [fluvastatin] | 1 | –

Row | Compound | No. of currently known drug interactions that involve the compound, Inhibition (P450 [1]; inhibition of a P450) | also measured
39 | C[C@@H]1C[C@H]2[C@@H]3CCC4=CC(=O)C=C[C@]4(C)[C@@]3(F)[C@@H](O)C[C@]2(C)[C@@]1(O)C(=O)CO [dexamethasone] | – | No. of currently known drug interactions that involve the compound, Induction (P450 [2]): 14
40 | COc1ccc2c(c1)[C@]13CCCC[C@@H]1[C@H](C2)N(C)CC3 [detromethorphan] | – | No. of currently known drug interactions that involve the compound, Induction (P450 [2]): 1
41 | C[C@H]1C[C@H]2[C@@H]3CCC4=CC(=O)C=C[C@]4(C)[C@@]3(F)[C@@H](O)C[C@]2(C)[C@@]1(O)C(=O)CO [betamethasone] | – | No. of currently known drug interactions that involve the compound, Induction (P450 [2]): 15
42 | Clc1ccc2c(c1)C(N1CCNCC1)=Nc1ccccc1O2 [amoxapine] | 3 | –
43 | O=C1CN=C(c2ccccc2)c2cc(Cl)ccc2N1CC1CC1 [prazapam] | – | No. of currently known drug interactions that involve the compound, Inhibition (P450 [1]): 2
44 | COc1ccc2c(c1)N(C[C@H](C)CN(C)C)c1ccccc1S2 [methotrimeprazine] | 1 | –
45 | CNCCCC1c2ccccc2C=Cc2ccccc21 [protriptyline] | 3 | –
46 | CC(C)(C)NC(=O)[C@@H]1C[C@@H]2CCCC[C@@H]2CN1C[C@@H](O)[C@H](Cc1ccccc1)NC(=O)[C@H](CC(N)=O)NC(=O)c1ccc2ccccc2n1 [saquinavir] | 2 | –
47 | CCN(CC)CCCC(C)Nc1ccnc2cc(Cl)ccc12 (centres unmarked) [chloroquine] | 1 | –
48 | CC[C@H](C)C(=O)O[C@H]1C[C@@H](C)C=C2C=C[C@H](C)[C@H](CC[C@@H]3C[C@@H](O)CC(=O)O3)[C@H]21 [lovastatin] | 5 | –
49 | CC[C@]1(O)C[C@@H]2CN(CCc3c([nH]c4ccccc34)[C@@](C(=O)OC)(c3cc4c(cc3OC)N(C)[C@H]3[C@@](O)(C(=O)OC)[C@H](OC(C)=O)[C@]5(CC)C=CCN6CC[C@]43[C@@H]65)C2)C1 [vinblastine] | 4 | –
50 | CO[C@H]1/C=C/O[C@@]2(C)Oc3c(C)c(O)c4c(O)c(c(/C=N/N5CCN(C6CCCC6)CC5)c(O)c4c3C2=O)NC(=O)/C(C)=C\C=C\[C@H](C)[C@H](O)[C@@H](C)[C@@H](O)[C@@H](C)[C@H](OC(C)=O)[C@@H]1C [rifapentine] | 2 | –
51 | CO[C@H]1/C=C/O[C@@]2(C)Oc3c(C)c(O)c4c(c3C2=O)C2=NC3(CCN(CC(C)C)CC3)NC2=C(NC(=O)/C(C)=C\C=C\[C@H](C)[C@H](O)[C@@H](C)[C@@H](O)[C@@H](C)[C@H](OC(C)=O)[C@@H]1C)C4=O [rifabutin] | 6 | –
52 | CC(C)COCC(CN(Cc1ccccc1)c1ccccc1)N1CCCC1 (centres unmarked) [bepridil] | 1 | –
53 | CC[C@]1(O)C[C@H]2CN(CCc3c([nH]c4ccccc34)[C@@](C(=O)OC)(c3cc4c(cc3OC)N(C=O)[C@H]3[C@@](O)(C(=O)OC)[C@H](OC(C)=O)[C@]5(CC)C=CCN6CC[C@]43[C@@H]65)C2)C1 [vincristine] | 4 | –
54 | OCCN1CCN(CCCN2c3ccccc3Sc3ccc(Cl)cc32)CC1 [perphenazine] | 1 | –
55 | CN(C)CCCN1c2ccccc2Sc2ccccc21 [promazine] | 1 | –
56 | CN1CCN(CCCN2c3ccccc3Sc3ccc(C(F)(F)F)cc32)CC1 [trifluoperazine] | 1 | –
